How the values were obtained:
PKCζ = biological target: T1, PKCζ (Homo sapiens, UniProt Q05513); test: EGFP-PKC translocation in HeLa cells (PKCζ); type: cell-based; conditions: one hour, same concentrations
T1 construct: host or cells: HeLa cells
T1 sequence (Q05513 1-592): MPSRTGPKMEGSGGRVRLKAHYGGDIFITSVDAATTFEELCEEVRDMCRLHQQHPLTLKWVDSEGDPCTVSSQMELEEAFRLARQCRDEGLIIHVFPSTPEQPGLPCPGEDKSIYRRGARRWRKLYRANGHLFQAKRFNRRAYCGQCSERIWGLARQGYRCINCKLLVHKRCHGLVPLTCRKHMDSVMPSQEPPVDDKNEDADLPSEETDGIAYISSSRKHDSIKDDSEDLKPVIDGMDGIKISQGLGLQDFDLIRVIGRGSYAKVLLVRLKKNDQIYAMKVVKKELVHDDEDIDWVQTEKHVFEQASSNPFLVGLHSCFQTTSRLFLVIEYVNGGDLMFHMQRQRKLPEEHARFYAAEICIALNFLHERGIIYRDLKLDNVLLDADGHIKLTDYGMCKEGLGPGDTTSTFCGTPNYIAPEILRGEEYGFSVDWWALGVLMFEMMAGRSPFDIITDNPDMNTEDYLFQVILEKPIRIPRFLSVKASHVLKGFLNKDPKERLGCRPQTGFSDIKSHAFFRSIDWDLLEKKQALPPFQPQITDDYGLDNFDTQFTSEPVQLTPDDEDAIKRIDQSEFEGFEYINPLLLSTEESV
Description: (§1) Five EGFP-PKC isoforms (Clontech) were available for this experiment, enabling the screening of the three predominant PKC families (i.e. classical, novel and atypical PKCs). The members of the various PKC families are α, β, and γ (classical), θ (novel) and ζ (atypical).
(§2) HeLa cells were plated out in a 24-well plate containing coverslips and transfected with PKC isoforms fused to EGFP, using a commercially available effectine-transfection kit (QIAGEN, Pty. Ltd.). Cells were exposed to the transfection reagents for 16-24 hr. Subsequently, transfected cells were treated for one hour with TPA (100 ng/mL), bryostatin-1 (5 pg/mL), PEP003 (2.25 μg/mL; 5 μM) or PEP005 ([…]) 1.5 μM). Following treatment, cells were fixed on coverslips and mounted on glass slides. The slides were subsequently examined visually by fluorescence microscopy, photographed, and over 150 cells were counted/treatment/PKC isoform. Counted cells were classified according to the localisation of the PKC-EGFP fluorescence as either cytoplasmic or plasma membrane using ImagePro™ 4.1 (FIG. 5). […] The number of these cells was also counted. Results are presented as an average and standard deviation of percentages of cells (Table 1).

PKCα = biological target: T2, PKCα (Homo sapiens, UniProt P17252); type: cell-based; conditions: HeLa, one hour; TPA 100 ng/mL, bryostatin-1 5 pg/mL, PEP003 2.25 μg/mL (5 μM)
T2 construct: host or cells: HeLa cells
Description: as §1
as §2, with “counted.” for “counted. Results are presented as an average and standard deviation of percentages of cells (Table 1).”

PKCθ = biological target: T3, PKCθ (Homo sapiens, UniProt Q04759); test: EGFP-PKC translocation in HeLa cells (PKCθ); type: cell-based; conditions: one hour, same concentrations
T3 construct: host or cells: HeLa cells
Description: as §1, §2

PKCγ = biological target: T4, PKCγ (Homo sapiens, UniProt P05129); test: EGFP-PKC translocation in HeLa cells (PKCγ); type: cell-based; conditions: one hour, TPA 100 ng/mL, bryostatin-1 5 pg/mL, PEP003 2.25 μg/mL (5 μM), PEP005 670 μg/mL (1.5 μM)
T4 construct: host or cells: HeLa cells
Description: as §1, §2

[1] = tested on: peripheral blood mononuclear cells; test: Phagocytosis with fluorescent beads; type: cell-based; conditions: 30 min, whole heparinized blood
Description: Phagocytosis by peripheral blood mononuclear cells (PBMCs) was assayed (Steinkamp et al., 1982) using 1 μm Fluoresbrite™ yellow-green fluorescent latex spheres (Polysciences, Inc., Warrington, Pa.). A sample of whole, heparinized blood was treated with drug and 5×10E7 fluorescent latex beads in 10 μL of PBS added per mL of suspension. Cells were incubated and maintained in suspension for 30 min by means of a shaker platform at 37° C. The stimulated and non-stimulated samples were then lysed to isolate PBMCs. The PBMCs were run on the flow cytometer measuring FITC (excitation at 488 nm, emission at 525±20 nm), gated for fluorescence (phagocytosed spheres) and light scatter (cell size).

adenovirus 5 = test: Adenovirus replication in human melanoma cells; type: cell-based; conditions: 2 days
Text: Human melanoma cells were infected with ten-fold dilutions of adenovirus 5 in culture, treated with dilutions of PEP005, PEP006, PEP008 and PEP010 and adenovirus replication determined 2 days later by immunhistochemical detection of virus-replicating cells.

PKCβ = biological target: T5, PKCβ (Homo sapiens, UniProt P05771); test: EGFP-PKC translocation in HeLa cells (PKCβ); type: cell-based; conditions: one hour
T5 construct: host or cells: HeLa cells
Description: as §1, §2

rat brain PKC = test: PKC kinase activity, PepTag non-radioactive protein kinase assay; type: biochemical; conditions: PepTag gel; various dilutions of TPA; ether extract final dilution 1 in 5; crude sap and aqueous layer diluted 1/25
Description: The kinase activity of rat brain PKC (Promega) was determined using the Peptag™ Non-Radioactive Protein Kinase Kit (Promega). Using agarose gel electrophoresis the technique visualises the opposing electrostatic charge of a fluorescently labeled peptide ([sequence]) compared to the phosphorylated version of the same peptide.
The reaction mixture was separated by gel electrophoresis, showing migration of the unreacted substrate (a) to the anode (top), and the product (b), which is more negatively charged because of phosphorylation by PKC, moving towards the cathode (bottom).

HIV-strain pNL4-3 = test: HIV-1 replication in acutely infected PBMC (CA-p24 ELISA); type: cell-based; conditions: 2.8 nM
Description: Experiments were conducted to assess the effect of the compounds of the instant invention on HIV-1 replication in acutely infected T cells. Peripheral blood mononuclear cells (PBMC) were obtained from non-HIV-1, non-HIV-2, non-Hepatitis B/C infected donors, stimulated with phytohemagglutinin-M and grown in culture media supplemented with 10 U/mL interleukin-2. The activated PBMC were infected with […] (Low Titre) and 100 ng (High Titre) of CA-p24 equivalents of the HIV-strain pNL4-3. Cells were infected for two hr after which, the virus was removed and the cells were washed with culture media. Equivalent numbers of cells were seeded into 24 well plates and compounds were added to the cultured cells that included: TPA at 8 nM and 80 nM, Ingenol at 280 nM, PEP003 at 500 nM, 50 nM and 5 nM, or PEP004 at dilutions of 1×10^4 and 1×10^5 from the stock (final concentrations). In addition, uninfected activated PBMC were grown in the presence of TPA (80 nM), Ingenol (280 nM), PEP003 (500 nM) and PEP004 (1×10^4 dilution). Other cultures were neither infected nor treated with any compound, or infected but not treated with any compound. Supernatant was removed from each culture at day 0, 3, 7, and 10. The amount of HIV-1 CA-p24 was determined using a commercially available ELISA assay. Three independent experiments were performed.

[2] = tested on: Peripheral blood mononuclear cells (granulocytes, monocytes, lymphocytes); test: Respiratory burst, DCFH-DA H2O2 flow cytometry; type: cell-based; conditions: 15 min at 37° C.
Description: Experiments were also carried out using 2′,7′-dichlorofluorescein diacetate (DCFH-DA) to measure the production of H2O2. (J P Robinson, Oxidative burst methods, in Handbook of Flow Cytometry Methods, Wiley-Liss Inc, pp 147-149, 1993). H2O2 oxidizes the non-fluorescent probe (DCFH-DA) to a fluorescent probe that can then be detected by a flow cytometer. Peripheral blood mononuclear cells (PBMC) were extracted from a donor blood sample by lysis of heparinized blood and used in a suspension of 1×10^6/mL of phosphate buffer, pH 7.3. The cells were then incubated with DCFH-DA (1 μL/mL of 20 mM stock) for 15 minutes to allow it to be taken up and trapped by hydrolysis with cellular esterases. The cells were then stimulated by test compounds for 15 min at 37° C. Controls included in the experiment were unloaded control (cells with no DCFH-DA) and loaded control (cells with DCFH-DA, but no stimulation). These were used to monitor the non-specific oxidation of unstimulated cells. The cells were then analyzed on the flow cytometer (excitation at 488 nm, emission at 525±20 nm), gating each sample for individual cell populations—granulocytes, monocytes and lymphocytes (Table 3).

[3] = tested on: MM96L human melanoma cells; test: Leukocytes plus drug, killing of MM96L cells ([3H]-thymidine); type: cell-based; conditions: 60 ng/mL, 48 hr, 100:1 effector:target
Description: (§3) Leukocytes obtained by lysis of human peripheral blood were added to 5000 MM96L human melanoma cells or 7000 neonatal foreskin fibroblasts per microtitre well at effector: target ratios of 1000, 100 and 10:1. Ing9 (60 ng/mL) was added and after 48 hr incubation the cultures were washed and labelled with [3H]-thymidine for 2 hr. […] Untreated leukocytes had no effect on cell survival.

[4] = tested on: MM96L human melanoma cells; test: Pretreated MM96L cells, killing by untreated leukocytes; type: cell-based; conditions: targets pretreated with 60 ng/mL for 20 hr, 100:1 effector:target
Description: (§4) Leukocytes obtained by lysis of human peripheral blood were added to 5000 MM96L human melanoma cells or 7000 neonatal foreskin fibroblasts per microtitre well at effector: target ratios of 1000, 100 and 10:1. The target cells had been treated with 60 ng/mL PEP008 for 20 hr beforehand, and washed and the medium replaced before the leukocytes were added. After 48 hr incubation with the leukocytes the cultures were washed and labelled with [3H]-thymidine for 2 hr. […] Untreated leukocytes had no effect on cell survival.

[5] = tested on: neonatal foreskin fibroblasts; test: Leukocytes plus drug, killing of fibroblasts ([3H]-thymidine); type: cell-based, human; conditions: 60 ng/mL, 48 hr, 100:1 effector:target
Description: as §3

[6] = tested on: neonatal foreskin fibroblasts; test: Pretreated fibroblasts, killing by untreated leukocytes; type: cell-based, human; conditions: targets pretreated with 60 ng/mL for 20 hr, 100:1 effector:target
Description: as §4

[7] = tested on: phorbol ester binding site of PKC; test: [3H]-phorbol dibutyrate competition assay, rat brain homogenate
Description: A competition assay was performed to determine whether the diterpene esters of the instant invention bind to the phorbol ester binding site of PKC. […] This binding was not blocked by co-incubation with bisindolylmaleimide.

T5 sequence (P05771 whole entry, species assumed): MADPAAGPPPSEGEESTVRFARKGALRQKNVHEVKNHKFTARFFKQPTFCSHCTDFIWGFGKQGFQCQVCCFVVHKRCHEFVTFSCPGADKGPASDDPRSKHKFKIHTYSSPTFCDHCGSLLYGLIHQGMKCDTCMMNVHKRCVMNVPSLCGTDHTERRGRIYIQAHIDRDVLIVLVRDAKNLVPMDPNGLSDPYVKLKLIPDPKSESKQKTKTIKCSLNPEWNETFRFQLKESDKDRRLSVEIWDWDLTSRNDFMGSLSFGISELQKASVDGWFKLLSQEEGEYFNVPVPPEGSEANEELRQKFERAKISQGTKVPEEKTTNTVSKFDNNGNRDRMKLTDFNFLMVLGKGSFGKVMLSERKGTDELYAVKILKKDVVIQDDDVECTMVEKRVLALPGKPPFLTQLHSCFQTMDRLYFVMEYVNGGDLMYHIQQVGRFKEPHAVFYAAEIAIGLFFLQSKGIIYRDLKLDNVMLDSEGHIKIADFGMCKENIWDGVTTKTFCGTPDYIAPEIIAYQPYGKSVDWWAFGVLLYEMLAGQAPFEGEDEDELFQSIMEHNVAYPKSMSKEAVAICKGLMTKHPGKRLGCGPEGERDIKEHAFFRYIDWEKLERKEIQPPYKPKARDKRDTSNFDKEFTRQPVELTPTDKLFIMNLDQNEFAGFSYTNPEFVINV
T3 sequence (Q04759 whole entry): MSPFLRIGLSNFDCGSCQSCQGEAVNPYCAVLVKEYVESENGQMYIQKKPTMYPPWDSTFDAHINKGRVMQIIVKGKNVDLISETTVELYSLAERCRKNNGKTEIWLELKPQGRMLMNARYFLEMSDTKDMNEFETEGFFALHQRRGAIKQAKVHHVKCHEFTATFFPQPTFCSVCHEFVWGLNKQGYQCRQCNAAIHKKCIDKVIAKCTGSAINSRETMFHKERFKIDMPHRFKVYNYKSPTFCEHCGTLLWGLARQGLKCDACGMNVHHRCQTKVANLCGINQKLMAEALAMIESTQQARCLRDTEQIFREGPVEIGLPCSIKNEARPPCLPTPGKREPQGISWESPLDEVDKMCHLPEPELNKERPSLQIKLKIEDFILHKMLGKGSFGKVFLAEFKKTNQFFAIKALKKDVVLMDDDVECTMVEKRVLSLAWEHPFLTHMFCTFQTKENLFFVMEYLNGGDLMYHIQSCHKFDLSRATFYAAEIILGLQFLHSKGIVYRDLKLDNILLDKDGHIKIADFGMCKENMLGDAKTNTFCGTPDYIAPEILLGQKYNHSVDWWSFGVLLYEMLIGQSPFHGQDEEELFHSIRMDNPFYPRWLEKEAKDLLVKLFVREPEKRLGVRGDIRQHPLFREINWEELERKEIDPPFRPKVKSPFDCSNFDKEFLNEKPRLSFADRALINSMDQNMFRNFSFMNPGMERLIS

C/C=C(/C)C(=O)O[C@H]1C(C)=C[C@]23C(=O)[C@@H](C=C(CO)[C@@H](O)[C@]12O)[C@H]1[C@@H](C[C@H]3C)C1(C)C [PEP005, ingenol-3-angelate]
translocation of PKCζ (PKCζ): fail to induce translocation | translocation of PKCα from cytoplasm to plasma membrane (PKCα): translocated from the cytoplasm to the plasma membrane | translocation of PKCθ (PKCθ): does not induce any change | translocation of PKCγ from cytoplasm to plasma membrane (PKCγ): translocated from the cytoplasm to the plasma membrane | phagocytosis of fluorescent latex spheres in PBMCs [1]: stimulate phagocytosis | increase in adenovirus replication (number of stained cells) (adenovirus 5; 67 ng/mL): 344% | number of PKCβ transfected cells with Golgi-like fluorescence (PKCβ): decreases the number of cells | translocation of PKCβ from cytoplasm to plasma membrane (PKCβ; TPA 100 ng/mL, bryostatin-1 5 pg/mL, PEP003 2.25 μg/mL (5 μM), PEP005 670 μg/mL (1.5 μM)): translocated from the cytoplasm to the plasma membrane

phosphatidyl serine
activation of PKC (FIG. 1) (rat brain PKC): strong activation

CC1=C[C@]23C(=O)[C@@H](C=C(CO)[C@@H](O)[C@]2(O)[C@H]1O)[C@H]1[C@@H](C[C@H]3C)C1(C)C [Ingenol]
reduction of HIV-1 replication rate (HIV-strain pNL4-3): approximately 35%

CCC/C=C/C=C/C(=O)O[C@H]1/C(=C/C(=O)OC)C[C@H]2C[C@H]([C@@H](C)O)OC(=O)C[C@H](O)C[C@@H]3C[C@H](OC(C)=O)C(C)(C)[C@](O)(C[C@@H]4C/C(=C/C(=O)OC)C[C@H](/C=C/C(C)(C)[C@]1(O)O2)O4)O3 [bryostatin-1]
translocation of PKCζ (PKCζ): fail to induce translocation | induction of respiratory burst (H2O2, DCFH-DA) [2]: All compounds except Bryostatin induced a respiratory burst | translocation of PKCθ (PKCθ): translocated | translocation of PKCγ from cytoplasm to plasma membrane (PKCγ): not with bryostatin-1 | number of PKCβ transfected cells with Golgi-like fluorescence (PKCβ): decreases the number of cells

C/C=C(/C)C(=O)O[C@H]1C(C)=C[C@]23C(=O)[C@@H](C=C(COC(C)=O)[C@@H](O)[C@]12O)[C@H]1[C@@H](C[C@H]3C)C1(C)C [PEP008, 20-O-acetyl-ingenol-3-angelate]
survival of melanoma cells [3]: 9% | survival of melanoma cells [4]: 12% | survival of normal fibroblasts [5]: 100% | phagocytosis of fluorescent latex spheres in PBMCs [1]: stimulate phagocytosis | increase in adenovirus replication (number of stained cells) (adenovirus 5; 226 ng/mL): 248% | survival of normal fibroblasts [6]: 100%

bisindolylmaleimide
binds to the phorbol ester binding site of PKC [7]: does not

C/C=C(/C)C(=O)O[C@H]1C(C)=C[C@]23C(=O)[C@H](C=C(C)[C@@H](O)[C@]12O)[C@H]1[C@@H](C[C@H]3C)C1(C)C [PEP006, 20-deoxy-ingenol-3-angelate]
phagocytosis of fluorescent latex spheres in PBMCs [1]: stimulate phagocytosis | increase in adenovirus replication (number of stained cells) (adenovirus 5; 295 ng/mL): 256%

Source: US9314458B2, “Topical use of ingenol-3-angelate or a salt thereof to treat skin cancer” (LEO Laboratories Limited, priority 2000, dated 2016)
